Measurements reported in ChEMBL document CHEMBL1201862, “PubChem BioAssay data set” (2004).
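Tested at 5 concentrations; 48 h exposure; 96-well plates; endpoints linearly interpolated, else capped at highest concentration. The concentration for 50% growth inhibition is given as GI50.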 Activity calls are given as the source filed them. Cut-off read from the data, not from the text of the source: active = GI50 up to about 1.1 µM and inactive = higher.

Experiments:
Assay in all cases: inhibition of tumour cell growth, NCI panel, 48 h
[1] = system: RPMI-8226
[2] = system: SK-MEL-2
[3] = system: SF-539
[4] = system: A498
[5] = system: HCC 2998
[6] = system: MOLT-4
[7] = system: UACC-62
[8] = system: SK-MEL-28
[9] = system: LOX IMVI
[10] = system: SF-295
[11] = system: NCI-H460
[12] = system: HL-60
[13] = system: SNB-75
[14] = system: M14
[15] = system: SNB-19

Measured: GI50

Clc1cc2nc[nH]c2cc1Cl
inactive: [1] > 100 µM | [2] > 100 µM | [3] > 100 µM | [4] 15.7 µM | [5] > 100 µM | [6] > 100 µM | [7] 76 µM | [8] > 100 µM | [9] > 100 µM | [10] > 100 µM | [11] > 100 µM | [12] > 100 µM | [13] 18.3 µM | [14] > 100 µM | [15] > 100 µM

CCCCC(C(=O)CCC(=O)Nc1ccc(Cl)cc1)C(=O)C(C)C (stereo unspecified)
inactive: [1] > 100 µM | [2] > 100 µM | [3] > 100 µM | [4] > 100 µM | [5] > 100 µM | [6] > 100 µM | [7] 18.2 µM | [8] > 100 µM | [9] 30.5 µM | [10] > 100 µM | [11] > 100 µM | [12] > 100 µM | [13] > 100 µM | [14] > 100 µM | [15] > 100 µM

O=S1(=O)OCCOS(=O)(=O)C1I
inactive: [1] > 100 µM | [2] > 100 µM | [3] > 100 µM | [4] > 100 µM | [5] > 100 µM | [6] 75.3 µM | [7] 40.1 µM | [8] > 100 µM | [10] 56.2 µM | [12] 53.2 µM | [13] > 100 µM | [14] > 100 µM | [15] 77.4 µM

NC(CCSCC(F)F)C(=O)O (stereo unspecified)
inactive: [3] > 100 µM | [4] > 100 µM | [5] > 100 µM | [6] > 100 µM | [7] > 100 µM | [8] > 100 µM | [9] > 100 µM | [10] > 100 µM | [11] > 100 µM | [12] > 100 µM | [13] > 100 µM | [14] > 100 µM | [15] > 100 µM

O=C(c1cc(O)ccc1O)c1ccccc1C(Cl)(Cl)Cl
inactive: [1] 47.5 µM | [2] > 100 µM | [3] > 100 µM | [4] 82.8 µM | [5] > 100 µM | [6] 33 µM | [7] 71.6 µM | [10] 55.7 µM | [11] > 100 µM | [12] 28.6 µM | [13] > 100 µM | [14] 88.7 µM | [15] > 100 µM

CC1CC(=O)Nc2ccc(Cl)cc2N1C(=O)CN1CCC(CCCCN(C)C)CC1 (stereo unspecified)
inactive: [1] > 100 µM | [4] > 100 µM | [5] > 100 µM | [6] > 100 µM | [7] > 100 µM | [8] > 100 µM | [9] > 100 µM | [10] > 100 µM | [11] > 100 µM | [12] > 100 µM | [14] > 100 µM | [15] > 100 µM

O=C(O)CCSC(=O)Nc1ccccc1
inactive: [1] > 100 µM | [2] > 100 µM | [3] > 100 µM | [4] > 100 µM | [5] > 100 µM | [6] > 100 µM | [7] 64.4 µM | [8] > 100 µM | [9] > 100 µM | [10] > 100 µM | [11] > 100 µM | [12] > 100 µM | [14] > 100 µM | [15] > 100 µM

COc1cccc(NC(=O)CC(=O)N2N=C(N(CCC#N)c3ccc(Cl)cc3)CC2c2ccccc2)c1 (stereo unspecified)
inactive: [1] > 100 µM | [2] > 100 µM | [3] > 100 µM | [4] > 100 µM | [5] > 100 µM | [6] > 100 µM | [7] > 100 µM | [8] > 100 µM | [9] > 100 µM | [10] > 100 µM | [11] > 100 µM | [12] > 100 µM | [13] > 100 µM | [14] > 100 µM | [15] > 100 µM

Cc1ccc(-c2nc3ccccc3c(=O)n2NCC2(O)OCC(O)C(O)C2O)cc1 (stereo unspecified)
inactive: [1] > 100 µM | [2] > 100 µM | [3] > 100 µM | [4] > 100 µM | [6] > 100 µM | [7] > 100 µM | [8] > 100 µM | [9] > 100 µM | [10] > 100 µM | [11] > 100 µM | [12] > 100 µM | [13] > 100 µM | [14] > 100 µM | [15] > 100 µM

CCN(CC)CC(C(=O)Nc1c(C)cccc1C)/C(C)=N\NC(=S)NN (stereo unspecified)
inactive: [1] > 100 µM | [2] > 100 µM | [3] > 100 µM | [4] > 100 µM | [5] > 100 µM | [6] > 100 µM | [7] > 100 µM | [8] > 100 µM | [9] > 100 µM | [10] > 100 µM | [11] > 100 µM | [12] > 100 µM | [13] > 100 µM | [14] > 100 µM

COC(=O)c1c(OC)cccc1C(=O)O
inactive: [1] > 100 µM | [2] > 100 µM | [3] > 100 µM | [4] > 100 µM | [5] > 100 µM | [6] > 100 µM | [7] > 100 µM | [10] > 100 µM | [11] > 100 µM | [12] > 100 µM | [13] > 100 µM | [14] > 100 µM | [15] > 100 µM

O=C1NC(Cc2ccccc2)C(=O)N2CCCC12 (stereo unspecified)
inactive: [1] > 100 µM | [2] > 100 µM | [3] > 100 µM | [4] > 100 µM | [5] > 100 µM | [6] > 100 µM | [7] > 100 µM | [8] > 100 µM | [9] > 100 µM | [10] > 100 µM | [11] > 100 µM | [12] > 100 µM | [13] > 100 µM | [14] > 100 µM | [15] > 100 µM

Clc1ccc(/C=C/c2csnn2)cc1
inactive: [2] > 100 µM | [3] > 100 µM | [4] > 100 µM | [5] > 100 µM | [6] > 100 µM | [7] > 100 µM | [8] > 100 µM | [9] > 100 µM | [10] > 100 µM | [11] > 100 µM | [12] > 100 µM | [13] > 100 µM | [14] > 100 µM | [15] > 100 µM

N#CC(/C(=N\NC(N)=S)C(=O)NC1C2CC3CC(C2)CC1C3)c1ccc(Cl)cc1 (stereo unspecified)
inactive: [1] > 100 µM | [2] > 100 µM | [3] > 100 µM | [4] > 100 µM | [5] > 100 µM | [6] > 100 µM | [7] > 100 µM | [8] > 100 µM | [9] > 100 µM | [10] > 100 µM | [11] > 100 µM | [12] > 100 µM | [13] > 100 µM | [14] > 100 µM | [15] > 100 µM

COC(=O)C1CC(OC(C)=O)C=C2C(=O)CCC21 (stereo unspecified)
inactive: [1] 21.4 µM | [2] 29 µM | [3] 20.6 µM | [4] 37.9 µM | [5] 34.2 µM | [6] 14.6 µM | [7] 19.3 µM | [8] 17.1 µM | [11] 17.1 µM | [12] 16.1 µM | [13] 15.2 µM | [14] 16.7 µM | [15] 26.2 µM

Cc1cccc(C)c1NC(=O)C(=O)C1C(=O)NC(=O)NC1=O
inactive: [1] > 100 µM | [3] > 100 µM | [4] > 100 µM | [5] > 100 µM | [6] > 100 µM | [7] > 100 µM | [8] > 100 µM | [9] > 100 µM | [10] > 100 µM | [11] > 100 µM | [12] > 100 µM | [14] > 100 µM | [15] > 100 µM

COc1cc2c(cc1O)[C@H](Cc1ccc(Oc3cc(C[C@H]4c5cc(OC)c(OC)cc5CCN4C)ccc3OC)cc1)NCC2
inactive: [1] 12.9 µM | [2] 17 µM | [3] 10.5 µM | [4] 13.7 µM | [5] 6.62 µM | [6] 3.25 µM | [7] 17.8 µM | [8] 16.8 µM | [9] 8.95 µM | [10] 11.9 µM | [11] 14.3 µM | [12] 12.4 µM | [13] 6.56 µM | [14] 1.81 µM | [15] 16.1 µM

CCC(=O)N1C(=O)OCC1C(C)C (stereo unspecified)
inactive: [1] > 100 µM | [2] > 100 µM | [3] > 100 µM | [4] > 100 µM | [5] > 100 µM | [6] > 100 µM | [7] > 100 µM | [9] > 100 µM | [10] > 100 µM | [11] > 100 µM | [12] > 100 µM | [13] > 100 µM | [14] > 100 µM | [15] > 100 µM

COc1ccc2c3ccc4c(c3n(C)c2c1)C(=O)c1ccccc1C4=O
inactive: [1] > 100 µM | [3] 22.2 µM | [4] 48.4 µM | [5] > 100 µM | [6] > 100 µM | [7] > 100 µM | [8] > 100 µM | [10] 78.2 µM | [12] > 100 µM | [13] > 100 µM | [14] > 100 µM | [15] > 100 µM

Cn1c(CCC#N)nc2ccc(Br)cc2c1=O
inactive: [1] > 100 µM | [2] > 100 µM | [3] > 100 µM | [4] > 100 µM | [5] > 100 µM | [6] > 100 µM | [7] > 100 µM | [8] > 100 µM | [9] > 100 µM | [10] > 100 µM | [11] > 100 µM | [12] > 100 µM | [13] > 100 µM | [14] > 100 µM
